Experimental data taken from paper PMC5614969, “High-Affinity Functional Fluorescent Ligands for Human β-Adrenoceptors” (Scientific Reports, 2017).

Legend:
β2AR [1] = target: T1, β2AR (Homo sapiens, UniProt P07550); assay: Staining and competitive binding in CAPAN-1 cells at endogenous β2AR expression; format: cell-based; conditions: for receptor staining: 100 nM probe; for competitive binding with excess unlabeled ligand: 100 nM probe (5 nM ab118171) with 10 µM BI-167107 or carazolol
Procedure: To study the selectivity of β2AR staining at the endogenous expression levels, which are much lower compared to those in transiently β2AR expressing U2OS cells, we tested the performance of BI-167107 probes in pancreatic CAPAN-1 cells (Fig. 7c–f). […] Low density of β2AR in the plasma membrane of CAPAN-1 cells allowed us to measure of the lateral resolution in the STED images. When the cells were incubated with 100 nM BI-PEG-KK114 (18) ligand, we observed two-fold improvement in the resolution resulting in apparent structures of ~100 nm (Fig. 7d; Supplementary Table 4).
For staining of CAPAN-1 cells, fluorescent probes or mixtures of a probe and a competitor were incubated in McCoy’s 5a Medium Modified supplemented with 10% fetal bovine serum (FBS) for 30–40 min at room temperature. Afterwards, the samples were washed two times with HBSS, and cells were imaged in DMEM (Thermo Fisher Scientific) supplemented with GlutaMAX-1 (Thermo Fisher Scientific) and 10% fetal bovine serum (FBS). Imaging performed on Leica SP8 (Leica Microsystems) or Abberior STED (Abberior Instruments GmbH) microscopes.

[2] = Fluorescence increase upon addition of SDS to probe solutions; format: physicochemical; conditions: addition of 0.1% SDS to ligand in PBS pH 7.4 with 1 mg/ml BSA; mean ± SD, n=3
Procedure: Fluorescence spectra of 1 µM solution of fluorescent dyes and ligands in PBS pH 7.4, PBS pH 7.4 + 1 mg/ml BSA (Sigma) and with or without 0.1% SDS (Acros Organics) were recorded on a multiwell plate reader Spark 20 M (Tecan) in half-area black 96-well plates (Greiner Bio-One, cat. 675076) at room temperature (25 °C) after 2 h incubation. Fluorescence emission was recorded from 600 nm to 800 nm with excitation at 580 nm. The emission bandwidth for all measurements was set to 5 nm. The spectra were averaged from 3 individual experiments. Ratios F(BSA+SDS)/F(BSA) of fluorescence signals at 635 nm for 610CP, 645 nm for BODIPY 630/650-X and 655 nm for KK114 conjugates were calculated. The obtained results are summarized (Table 1 and Supplementary Fig. 7).

β2AR [3] = target: T1, β2AR; assay: TR-FRET receptor-ligand saturation binding assay, Tag-lite β2AR cells; conditions: for binding selectivity β2AR over β1AR: TR-FRET assay, ratio of Kd app; for Kd: β2AR, 2 h at room temperature, read-out: Kd app
Procedure: To confirm whether the affinity of carazolol-KK114 (24) is sufficient for the intended imaging experiments and to evaluate its β2/β1AR selectivity, we performed a TR-FRET assay in Tag-lite β1AR or β2AR transfected cells (Cisbio) labeled with Tb^3+ cryptate (Lumi4-Tb) (Fig. 3c)[39]. […] (Fig. 3d, Supplementary Fig. 5b). The high affinities of both fluorescent ligands enabled the imaging experiments.
K d determination was performed on Tag-lite β1AR (Cisbio, Cat. No. C1TT1BETA1) or β2AR (Cisbio, Cat. No. C1TT1BETA2) Tb^3+ cryptate labeled transfected cells. The β1AR or β2AR cells labeled with SNAP-Terbium interact with the specific ligand labeled with the corresponding fluorophore. The fraction of bound ligand is proportional to the FRET signal. Donor Tb^3+ cryptate: exc. 340 nm, em. 490 nm, 546 nm, 583 nm, 620 nm; acceptor KK114: exc. 630 nm, em. 655 nm. The cells were thawed and suspended in 4.5 ml Tag-lite buffer (Cisbio, Cat. No. LABMED) according to the product information and transferred to half-area white polystyrene 96 well plates (Sigma, Cat. No. CLS3693) by 20 µl per well. 20 µl of a fluorescent probe or control compound in Tag-lite buffer was added to each well and incubated for 2 h at room temperature (20 °C) before readout. FRET readout was performed on a multiwell plate reader Spark 20 M (Tecan) at room temperature. […] All probe and control compound dilutions were prepared in DMSO, so that the final DMSO concentration was kept constant throughout the titration series. The ratio of the acceptor and donor emission signals was calculated for each individual well using equation (3):3 Ratio=Signal655nm−BackgroundSignal/Signal620nm−BackgroundSignal
Luminescence background signal was measured in wells containing 40 µl of Tag-lite buffer only. Specific binding was calculated by subtracting nonspecific binding ratio from total binding ratio at each fluorescent ligand concentration. K d ^app is determined by fitting data using GraphPad Prism 6 to one site specific binding with Hill slope equation (4):4 Specificsingalratio=A∗[probe]^h/(Kdapp)^h+[probe]^h
A is amplitude of specific signal ratio, [probe] - probe concentration, K d ^app - the ligand concentration needed to achieve a half-maximum binding at equilibrium, h - the Hill slope.

T1 sequence (P07550 whole entry): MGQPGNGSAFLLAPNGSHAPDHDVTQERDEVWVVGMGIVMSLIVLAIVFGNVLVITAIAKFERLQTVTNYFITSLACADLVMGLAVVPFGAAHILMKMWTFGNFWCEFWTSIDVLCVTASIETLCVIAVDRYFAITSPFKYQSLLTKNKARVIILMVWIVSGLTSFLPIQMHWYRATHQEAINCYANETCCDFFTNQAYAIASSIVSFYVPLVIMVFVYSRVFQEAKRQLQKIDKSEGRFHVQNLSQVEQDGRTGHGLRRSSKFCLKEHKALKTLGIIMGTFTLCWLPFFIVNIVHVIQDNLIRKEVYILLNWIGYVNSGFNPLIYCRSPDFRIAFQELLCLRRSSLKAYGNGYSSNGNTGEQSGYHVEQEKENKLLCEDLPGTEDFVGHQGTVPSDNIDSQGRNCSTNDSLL

Structure (SMILES)	receptor staining (β2AR [1])	competitive binding with excess unlabeled ligand (β2AR [1])	Fluorescence increase (F BSA+SDS / F BSA) [2]	binding selectivity β2AR over β1AR (β2AR [3])	Kd (β2AR [3]) [nM]
Cc1c(CCC(=O)NCCOCCOCCNC(=O)CCN(C)C(=O)c2c(F)c(F)c(F)c(F)c2C2=c3cc4c5c(c3Oc3c2cc2c6c3CCCN6C(C)(C)C=C2CS(=O)(=O)O)CCC[N+]=5C(C)(C)C=C4CS(=O)(=O)[O-])cccc1CC(C)(C)NCC(O)c1ccc(O)c2c1OCC(=O)N2 (stereo not shown) [BI-PEG-KK114 (18)]	plasma membrane localized receptor staining	no background fluorescence	1.4±0.1	nine-fold	7.2 ± 0.6
CN(CCC(=O)NCCOCCOCCOCCOCCC(=O)NCCC(C)(C)NCC(O)COc1cccc2[nH]c3ccccc3c12)C(=O)c1c(F)c(F)c(F)c(F)c1C1=c2cc3c4c(c2Oc2c1cc1c5c2CCCN5C(C)(C)C=C1CS(=O)(=O)O)CCC[N+]=4C(C)(C)C=C3CS(=O)(=O)[O-] (stereo not shown) [Carazolol-KK114 (24)]	plasma membrane localized receptor staining	efficiently displaced	5.9±1.5	three-fold	14.7 ± 0.9
